Reference: ChEMBL document CHEMBL5543112, “Discovery of CBPD-268 as an Exceptionally Potent and Orally Efficacious CBP/p300 PROTAC Degrader Capable of Achieving Tumor Regression” (J Med Chem, 2024)
The source made the active and inactive calls. No cut-off for these calls is given here.

Assays:
[1] = Drug distribution in SCID mouse tumor at 1 mg/kg, po measured at 1 hr by LC-MS/MS analysis; type: ADME, organism-based, Neoplasm; settings: read-out: Ct
[2] = Plasma protein binding in dog by LC-MS analysis; type: ADME, cell-free, Canis lupus familiaris; settings: read-out: PPB (converted)
[3] = Chemical stability of the compound assessed as parent compound remaining measured at 3 hrs; type: physicochemical
[4] = Oral bioavailability in Sprague-Dawley rat at 3 mg/kg measured upto 24 hrs by LC/MS-MS analysis; type: ADME, organism-based; settings: in vivo
[5] = Drug distribution in Sprague-Dawley rat spleen at 10 mg/kg, po measured at 24 hrs by LC-MS/MS analysis; type: ADME, organism-based; settings: read-out: Ct
[6] = Toxicity in immune-competent Sprague-Dawley rat assessed as change in alkaline phosphatase level at 1 to 10 mg/kg, po administered twice a week for 5 weeks; type: organism-based; settings: in vivo, 840 h, dose 1-10 mg/kg
[7] = Toxicity in immune-competent Sprague-Dawley rat assessed as change in lymphocyte at 1 to 10 mg/kg, po administered twice a week for 5 weeks; type: organism-based; settings: in vivo, 840 h, dose 1-10 mg/kg
[8] = Volume of distribution at steady state in Sprague-Dawley rat at 1 mg/kg, iv measured upto 24 hrs by LC/MS-MS analysis; type: ADME, organism-based; settings: in vivo, read-out: Vdss
[9] = Toxicity in immune-competent Sprague-Dawley rat assessed as change in basophil at 1 to 10 mg/kg, po administered twice a week for 5 weeks; type: organism-based; settings: in vivo, 840 h, dose 1-10 mg/kg
CWR22R [10] = experiment: Antitumor activity against human 22Rv1 cells xenografted in SCID mouse assessed as reduction in BRD2 level in tumor at 1 to 3 mg/kg, po measured at 6 to 24 hrs by Western blotting analysis; type: functional, organism-based; settings: dose 1-3 mg/kg, time 6-24 hrs
CWR22R [11] = experiment: Antitumor activity against human 22Rv1 cells xenografted in SCID mouse assessed as tumor growth inhibition at 3 mg/kg, po administered 3 times a week for 3 weeks; type: functional; settings: 22Rv1, 504 h, read-out: TGI
[12] = molecular target: T1, Protein cereblon/histone acetyltransferase (Rattus norvegicus, UniProt Q56AP7+Q91XT0); experiment: PROTAC activity at p300/CRBN in rat RG2 cells assessed as induction of p300 degradation; type: cell-based
T1 sequence (Q56AP7 whole entry): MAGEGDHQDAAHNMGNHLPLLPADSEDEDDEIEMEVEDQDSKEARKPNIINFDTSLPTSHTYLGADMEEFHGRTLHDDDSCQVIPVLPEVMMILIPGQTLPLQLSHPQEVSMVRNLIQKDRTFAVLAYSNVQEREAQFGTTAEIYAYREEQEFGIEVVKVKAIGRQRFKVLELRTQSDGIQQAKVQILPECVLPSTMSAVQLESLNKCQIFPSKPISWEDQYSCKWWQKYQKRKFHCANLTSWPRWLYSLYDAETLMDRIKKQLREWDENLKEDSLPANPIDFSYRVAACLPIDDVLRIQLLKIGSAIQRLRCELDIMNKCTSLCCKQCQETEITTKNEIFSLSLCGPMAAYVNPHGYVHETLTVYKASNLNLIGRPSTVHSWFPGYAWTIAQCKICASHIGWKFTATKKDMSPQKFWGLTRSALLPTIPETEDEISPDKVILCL
T1 sequence (Q91XT0 whole entry): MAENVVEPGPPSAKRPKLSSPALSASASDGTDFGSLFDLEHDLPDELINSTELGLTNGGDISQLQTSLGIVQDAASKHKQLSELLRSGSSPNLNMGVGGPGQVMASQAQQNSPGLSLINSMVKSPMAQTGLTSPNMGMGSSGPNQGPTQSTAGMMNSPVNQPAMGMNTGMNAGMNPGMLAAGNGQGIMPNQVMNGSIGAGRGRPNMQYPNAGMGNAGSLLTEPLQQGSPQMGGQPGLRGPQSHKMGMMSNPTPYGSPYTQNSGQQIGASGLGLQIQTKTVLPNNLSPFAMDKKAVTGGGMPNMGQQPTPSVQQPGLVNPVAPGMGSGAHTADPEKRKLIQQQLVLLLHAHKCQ

[13] = Metabolic stability in mouse liver microsome assessed as half life measured upto 60 mins in presence of NADPH by LC-MS/MS analysis; type: ADME; settings: liver microsomes
[14] = Drug distribution in SCID mouse spleen at 0.3 mg/kg, po measured at 6 hrs by LC-MS/MS analysis; type: ADME, organism-based; settings: read-out: Ct
[15] = Drug distribution in Sprague-Dawley rat kidney at 3 mg/kg, po measured at 24 hrs by LC-MS/MS analysis; type: ADME, organism-based; settings: read-out: Ct
[16] = Drug distribution in SCID mouse liver at 1 mg/kg, po measured at 6 hrs by LC-MS/MS analysis; type: ADME, organism-based; settings: read-out: Ct
[17] = Plasma protein binding in monkey by LC-MS analysis; type: ADME, cell-free, Macaca mulatta; settings: rhesus monkey, read-out: PPB (converted)
[18] = Drug concentration in SCID mouse plasma at 1 mg/kg, po measured at 24 hrs by LC-MS/MS analysis; type: ADME, organism-based
[19] = Drug distribution in Sprague-Dawley rat plasma at 10 mg/kg, po measured at 1 hr by LC-MS/MS analysis; type: ADME, organism-based
[20] = Half life in Sprague-Dawley rat at 1 mg/kg, iv measured upto 24 hrs by LC/MS-MS analysis; type: ADME, organism-based; settings: in vivo
[21] = Drug distribution in SCID mouse plasma at 3 mg/kg, po measured at 1 hr by LC-MS/MS analysis; type: ADME, organism-based
[22] = Toxicity in male BALB/c mouse assessed as body weight loss at 30 mg/kg, po administered twice a week for 5 to 6 weeks; type: organism-based; settings: in vivo, time 5-6 weeks
[23] = Metabolic stability in rat plasma assessed as half life measured upto 120 mins by LC-MS/MS analysis; type: ADME, cell-free
[24] = Metabolic stability in human plasma assessed as half life measured upto 120 mins by LC-MS/MS analysis; type: ADME, cell-free
[25] = Drug concentration in SCID mouse plasma at 1 mg/kg, po measured at 6 hrs by LC-MS/MS analysis; type: ADME, organism-based
[26] = Toxicity in immune-competent Sprague-Dawley rat assessed as change in neutrophil at 1 to 10 mg/kg, po administered twice a week for 5 weeks; type: organism-based; settings: in vivo, 840 h, dose 1-10 mg/kg
[27] = Drug concentration in SCID mouse tumor at 1 mg/kg, po measured at 1 hr by LC-MS/MS analysis; type: ADME, organism-based, Neoplasm; settings: read-out: Ct
VCaP [28] = experiment: Antitumor activity against human VCaP cells xenografted in SCID mouse assessed as tumor growth inhibition at 0.3 mg/kg, po administered daily 5 times a week for 4 weeks; type: functional; settings: 672 h, read-out: TGI
VCaP [29] = experiment: Antitumor activity against human VCaP cells xenografted in SCID mouse assessed as tumor growth inhibition at 1 mg/kg, po administered twice a week for 4 week; type: functional; settings: 672 h, time 4 weeks, read-out: TGI
[30] = Drug distribution in Sprague-Dawley rat plasma at 3 mg/kg, po measured at 6 hrs by LC-MS/MS analysis; type: ADME, organism-based
Cytochrome P450 2C19 = Cytochrome P450 2C19 (Homo sapiens, UniProt P33261); experiment: Inhibition of CYP2C19 (unknown origin) preincubated with compound for 5 mins followed by NADPH addition and measured after 45 mins by LC-MS/MS analysis; type: ADME
[31] = Metabolic stability in monkey plasma assessed as half life measured upto 120 mins by LC-MS/MS analysis; type: ADME, cell-free, Macaca mulatta; settings: rhesus monkey

Chain of Cytochrome P450 2C19 (P33261 whole entry): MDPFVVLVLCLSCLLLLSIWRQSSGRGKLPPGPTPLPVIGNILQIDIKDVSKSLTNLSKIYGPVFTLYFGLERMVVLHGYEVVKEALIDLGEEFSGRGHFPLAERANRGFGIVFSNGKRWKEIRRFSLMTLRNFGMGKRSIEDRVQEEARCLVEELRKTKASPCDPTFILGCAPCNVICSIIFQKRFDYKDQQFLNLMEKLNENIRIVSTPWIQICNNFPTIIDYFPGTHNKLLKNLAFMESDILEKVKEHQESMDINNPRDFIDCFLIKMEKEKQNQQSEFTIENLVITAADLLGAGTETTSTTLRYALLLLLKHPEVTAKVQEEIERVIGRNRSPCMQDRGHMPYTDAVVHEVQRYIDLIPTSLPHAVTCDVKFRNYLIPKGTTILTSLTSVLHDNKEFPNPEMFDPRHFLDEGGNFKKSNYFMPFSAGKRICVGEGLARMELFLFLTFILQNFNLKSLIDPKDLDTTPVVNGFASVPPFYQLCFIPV

- concentration at 1 h [1]: 155 ng/g
- fraction unbound [2]: 0.009
- Stability [3]: Stable
- bioavailability [4]: 67%
- concentration at 24 h [5]: 12.6 ng/g
- Vd [8]: 4.9 L/kg
- DC50 [12]: 0.3 nM
- half-life [13]: > 2 h
- concentration at 6 h [14]: 27.4 ng/mL
- concentration at 24 h [15]: 2.1 ng/g
- concentration at 6 h [16]: 301 ng/mL
- fraction unbound [17]: 0.009
- concentration at 24 h [18]: 2.8 ng/mL
- concentration at 1 h [19]: 321 ng/mL
- half-life [20]: 1.9 h
- concentration at 1 h [21]: 747 ng/mL
- half-life [23]: 0.8 h
- half-life [24]: 1.18 h
- concentration at 6 h [25]: 14.1 ng/mL
- concentration at 1 h [27]: 30.8 ng/g
- concentration at 6 h [30]: 13.1 ng/mL
- IC50 (Cytochrome P450 2C19): > 10000 nM
- half-life [31]: > 2 h
Structure (SMILES): CC(=O)N1CCc2c(c(N3CCCc4cc(-c5cnn(C)c5)c(C(F)F)cc43)nn2[C@H]2CC[C@H](CN3Cc4cc5c(cc4C3)C(=O)N(C3CCC(=O)NC3=O)C5=O)CC2)C1 (some centres not stated)
- Activity [6]: Non-Toxic
- Activity [7]: Non-Toxic
- Activity [9]: Non-Toxic
- Activity (CWR22R [10]): Active
- inhibition in vivo at 3 mg/kg (CWR22R [11]): 83%
- Activity [22]: < 5%
- Activity [26]: Non-Toxic
- inhibition in vivo at 0.3 mg/kg (VCaP [28]): 84%
- inhibition in vivo at 1 mg/kg (VCaP [29]): 81%
